The target in this assay is T1, human plasma renin (Homo sapiens, UniProt P00797).
T1 construct: from tissue; host or cells: human plasma
T1 sequence (P00797 67-406): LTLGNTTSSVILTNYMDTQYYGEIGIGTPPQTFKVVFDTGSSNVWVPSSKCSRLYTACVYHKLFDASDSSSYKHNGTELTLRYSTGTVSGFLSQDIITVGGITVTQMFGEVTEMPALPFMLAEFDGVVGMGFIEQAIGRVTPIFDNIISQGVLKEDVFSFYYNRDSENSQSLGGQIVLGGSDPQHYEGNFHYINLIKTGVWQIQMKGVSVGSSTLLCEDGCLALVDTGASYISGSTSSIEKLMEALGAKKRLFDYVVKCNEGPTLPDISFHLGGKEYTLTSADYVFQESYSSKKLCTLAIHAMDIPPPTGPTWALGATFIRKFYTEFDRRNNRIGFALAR
The experiment in a line: Renin inhibiting activities (human plasma, angiotensin I by radio immunoassay). The note with it: pH7.4, 37° C., one hour, read-out: IC50 (50 % inhibition concentrations), renin inhibiting activity. It is filed as biochemical. As to the method:
To 156 μl of a 0.2M sodium phosphate buffer solution (pH7.4), 40 μl of a solution mixture of 34 mM 8-hydroxyquinoline and 100 mM disodium ethylenediamine tetraacetate, 4 μl of dimethyl sulfoxide or a dimethyl sulfoxide solution of test compound and 200 μl of human plasma were added and reacted at 37° C. for one hour. Then, pepstatin was added thereto to terminate the reaction, and the amount of the resulting angiotension I was measured by radio immunoassay whereby the inhibiting activity was determined.
Consider `CCCC[C@H](NC(=O)[C@H](Cc1cccc2ccccc12)CS(=O)(=O)CC(O)COC(=O)C(C)(C)C)C(=O)N[C@@H](CC1CCCCC1)[C@@H](O)[C@@H](O)CN1CCOCC1` (mixture of isomers) [Example 2, (2S,3R,4S)-4-{L-N-[(2S)-3-[(2RS)-3-pivaloyloxy-2-hydroxypropyl]sulfonyl-2-(1-naphthylmethyl)propionyl]norleucyl}amino-5-cyclohexyl-1-morpholino-2,3-pentanediol], for which the IC50 was 7.2 nM.

As for `CCCC[C@H](NC(=O)[C@H](Cc1cccc2ccccc12)C[S+]([O-])CC(COC(C)=O)OC(C)=O)C(=O)N[C@@H](CC1CCCCC1)[C@@H](O)[C@@H](O)CN1CCOCC1` (mixture of isomers) [Example 6 (having a high Rf value), (2S,3R,4S)-4-{L-N-[(2S)-3-[(2RS)-2,3-diacetoxypropyl]sulfinyl-2-(1-naphthylmethyl)propionyl]norleucyl}amino-5-cyclohexyl-1-morpholino-2,3-pentanediol], the IC50 amounted to 6 nM. In the case of `CCCC[C@H](NC(=O)[C@H](Cc1cccc2ccccc12)C[S+]([O-])CC(COC(C)=O)OC(C)=O)C(=O)N[C@@H](CC1CCCCC1)[C@@H](O)[C@@H](O)CN1CCOCC1` (mixture of isomers) [Example 6 (having a low Rf value), (2S,3R,4S)-4-{L-N-[(2S)-3-[(2RS)-2,3-diacetoxypropyl]sulfinyl-2-(1-naphthylmethyl)propionyl]norleucyl}amino-5-cyclohexyl-1-morpholino-2,3-pentanediol] it was 4.1 nM. Next, `CCCC[C@H](NC(=O)[C@H](Cc1cccc2ccccc12)CS(=O)(=O)CC(COC(=O)CC)OC(=O)CC)C(=O)N[C@@H](CC1CCCCC1)[C@@H](O)[C@@H](O)CN1CCOCC1` (mixture of isomers) [Example 8, (2S,3R,4S)-4-{L-N-[(2S)-3-[(2RS)-2,3-dipropionyloxypropyl]sulfonyl,-2-(1-naphthylmethyl)propionyl]norleucyl}amino-5-cyclohexyl-1-morpholino-2,3-pentanediol]: 3.3 nM; `CCCC[C@H](NC(=O)[C@H](Cc1cccc2ccccc12)CS(=O)(=O)CC(O)COC(=O)CC)C(=O)N[C@@H](CC1CCCCC1)[C@@H](O)[C@@H](O)CN1CCOCC1` (mixture of isomers) [Example 12, (2S,3R,4S)-4-{L-N-[(2S)-3-[(2RS)-3-propionyloxy-2-hydroxypropyl]sulfonyl-2-(1-naphthylmethyl)propionyl]norleucyl}amino-5-cyclohexyl-1-morpholino-2,3-pentanediol]: 4.3 nM; `CCCC[C@H](NC(=O)[C@H](Cc1cccc2ccccc12)CS(=O)(=O)CC(COC(=O)CC)OC(C)=O)C(=O)N[C@@H](CC1CCCCC1)[C@@H](O)[C@@H](O)CN1CCOCC1` (mixture of isomers) [Example 13, (2S,3R,4S)-4-{L-N-[(2S)-3-[(2RS)-2-acetoxy-3-propionyloxypropyl]sulfonyl-2-(1-naphthylmethyl)propionyl]norleucyl}amino-5-cyclohexyl-1-morpholino-2,3-pentanediol]: 2 nM. Next, `CCCC[C@H](NC(=O)[C@H](Cc1cccc2ccccc12)CS(=O)(=O)CC(COC(=O)CC)OC)C(=O)N[C@@H](CC1CCCCC1)[C@@H](O)[C@@H](O)CN1CCOCC1` (mixture of isomers) [Example 14, (2S,3R,4S)-4-{L-N-[(2S)-3-[(2RS)-2-methoxy-3-propionyloxypropyl]sulfonyl-2-(1-naphthylmethyl)propionyl]norleucyl}amino-5-cyclohexyl-1-morpholino-2,3-pentanediol]: 2 nM. Regarding `CCCC[C@H](NC(=O)[C@H](Cc1ccccc1)CS(=O)(=O)CC(COC(C)=O)OC(C)=O)C(=O)N[C@@H](CC1CCCCC1)[C@@H](O)[C@@H](O)CN1CCOCC1` (mixture of isomers) [Example 15, (2S,3R,4S)-4-{L-N-[(2S)-3-[(2RS)-2,3-diacetoxypropyl]sulfonyl-2-benzylpropionyl]norleucyl}amino-5-cyclohexyl-1-morpholino-2,3-pentanediol], the IC50 came to 7.3 nM. Next, `CCCC[C@H](NC(=O)[C@@H](CSCC(COC(C)=O)OC(C)=O)Cc1ccccc1)C(=O)N[C@@H](CC1CCCCC1)[C@@H](O)[C@@H](O)CN1CCOCC1` (mixture of isomers) [Example 16, (2S,3R,4S)-4-{L-N-[(2S)-3-[(2RS)-2,3-diacetoxypropyl]thio-2-benzylpropionyl]norleucyl}amino-5-cyclohexyl-1-morpholino-2,3-pentanediol]: 6 nM.

As to `CCCC[C@H](NC(=O)[C@H](Cc1ccccc1)CS(=O)(=O)CC(COC(=O)CC)OC(=O)CC)C(=O)N[C@@H](CC1CCCCC1)[C@@H](O)[C@@H](O)CN1CCOCC1` (mixture of isomers) [Example 17, (2S,3R,4S)-4-{L-N-[(2S)-3-[(2RS)-2,3-dipropionyloxypropyl]sulfonyl-2-benzylpropionyl]norleucyl}amino-5-cyclohexyl-1-morpholino-2,3-pentanediol], the IC50 was found to be 8.3 nM.

For the compound `CCCC[C@H](NC(=O)[C@@H](CSCC(COC(C)=O)OC)Cc1cccc2ccccc12)C(=O)N[C@@H](CC1CCCCC1)[C@@H](O)[C@@H](O)CN1CCOCC1` (mixture of isomers) [Example 27, (2S,3R,4S)-4-{L-N-[(2S)-3-[(2RS)-3-acetoxy-2-methoxypropyl]thio-2-(1-naphthylmethyl)propionyl]norleucyl}amino-5-cyclohexyl-1-morpholino-2,3-pentanediol], the IC50 was 2.2 nM. In the case of `CCCC[C@H](NC(=O)[C@H](Cc1cccc2ccccc12)CS(=O)(=O)CC(COC)OC(C)=O)C(=O)N[C@@H](CC1CCCCC1)[C@@H](O)[C@@H](O)CN1CCOCC1` (mixture of isomers) [Example 28, (2S,3R,4S)-4-{L-N-[(2S)-3-[(2RS)-2-acetoxy-3-methoxypropyl]sulfonyl-2-(1-naphthylmethyl)propionyl]norleucyl}amino-5-cyclohexyl-1-morpholino-2,3-pentanediol] it was 1.9 nM; in that of `CCCC[C@H](NC(=O)[C@H](Cc1cccc2ccccc12)CS(=O)(=O)CC(COC(C)=O)OC)C(=O)N[C@@H](CC1CCCCC1)[C@@H](O)[C@@H](O)CN1CCOCC1` (mixture of isomers) [Example 29, (2S,3R,4S)-4-{L-N-[(2S)-3-[(2RS)-3-acetoxy-2-methoxypropyl]sulfonyl-2-(1-naphthylmethyl)propionyl]norleucyl}amino-5-cyclohexyl-1-morpholino-2,3-pentanediol], 0.76 nM; in that of `CCCC[C@H](NC(=O)[C@H](Cc1cccc2ccccc12)CS(=O)(=O)CC(COC(C)=O)OCC)C(=O)N[C@@H](CC1CCCCC1)[C@@H](O)[C@@H](O)CN1CCOCC1` (mixture of isomers) [Example 43, (2S,3R,4S)-4-{L-N-[(2S)-3-[(2RS)-3-acetoxy-2-ethoxypropyl]sulfonyl-2-(1-naphthylmethyl)propionyl]norleucyl}amino-5-cyclohexyl-1-morpholino-2,3-pentanediol], 2.4 nM.

As for `CCCC[C@H](NC(=O)[C@H](Cc1cccc2ccccc12)C[S+]([O-])c1ccc(OC(C)=O)cc1)C(=O)N[C@@H](CC1CCCCC1)[C@@H](O)[C@@H](O)CN1CCOCC1` (single isomer, unassigned) [Example 20 (having a low Rf value)], the IC50 was 4 nM.

(Values after patent publication US5424309A, “N-substituted acylamino acid compounds, process for their production and their use” (Banyu Pharmaceutical Co., Ltd., priority 1988, dated 1995).)
